Measured values published in ChEMBL document CHEMBL3621124, “Synthesis, cytotoxicity and inhibition of NO production of ivangustin enantiomer analogues” (Eur J Med Chem, 2015).

How the values were obtained:
[1] = tested on: HCT-116; assay: Cytotoxicity against human HCT116 cells assessed as growth inhibition incubated for 72 hrs by MTT assay; type: functional, cell-based; conditions: HCT-116, 72 h
[2] = tested on: HL-60; assay: Cytotoxicity against human HL60 cells assessed as growth inhibition incubated for 72 hrs by CCK8 assay; type: functional, cell-based; conditions: HL-60, 72 h
[3] = Cytotoxicity against human QGY7701 cells assessed as growth inhibition incubated for 72 hrs by MTT assay; type: functional, cell-based; conditions: QGY7701, 72 h
[4] = tested on: SMMC-7721; assay: Cytotoxicity against human SMMC7721 cells assessed as growth inhibition incubated for 72 hrs by MTT assay; type: functional, cell-based; conditions: SMMC-7721, 72 h
[5] = tested on: A549; assay: Cytotoxicity against human A549 cells assessed as growth inhibition incubated for 72 hrs by MTT assay; type: functional, cell-based; conditions: A549, 72 h
[6] = tested on: MCF7; assay: Cytotoxicity against human MCF7 cells assessed as growth inhibition incubated for 72 hrs by MTT assay; type: functional, cell-based; conditions: MCF7, 72 h
[7] = tested on: RAW264.7; assay: Anti-inflammatory activity against LPS-induced mouse RAW264.7 cells assessed as inhibition of nitric oxide production incubated for 20 mins before LPS induction by Griess method; type: functional, cell-based
[8] = tested on: RAW264.7; assay: Cytotoxicity against LPS-induced mouse RAW264.7 cells incubated for 18 hrs by MTT assay; type: cell-based; conditions: RAW264.7, 18 h

SMILES | IC50 [7] [µM] | IC50 [1] [µM] | IC50 [2] [µM] | IC50 [3] [µM] | IC50 [4] [µM] | IC50 [5] [µM] | IC50 [6] [µM] | IC50 [8] [µM]
COc1cccc2c1C(=O)c1c(O)c3c(c(O)c1C2=O)C[C@@](O)(C(=O)CO)C[C@@H]3O[C@H]1C[C@H](N)[C@H](O)[C@H](C)O1 [DOXORUBICIN] | – | 0.18 | – | – | 0.57 | – | – | –
C=C1C(=O)O[C@H]2C[C@](C)(C(=O)CC(=O)CC)C(=O)C[C@@H]12 | 6.99 | 21 | 16.4 | 13.7 | 48.6 | 21.9 | 27.2 | 47.2
C=C1C(=O)O[C@H]2C[C@@]3(C)C(=O)[C@@H]([C@@H]12)[C@](O)(CC)C[C@@H]3OCOC | 6.7 | 14.5 | 9.37 | 7.75 | 31.7 | 17 | 16.4 | 20.1
C=C1C(=O)O[C@H]2C[C@@H](C)C(=O)C[C@@H]12 | 5.82 | 18.3 | 12.6 | 8.58 | 42.6 | 14.9 | 15.7 | 30.6
C=C(C)CC[C@H](O)[C@@]1(C)C[C@@H]2OC(=O)C(=C)[C@@H]2CC1=O | 6.12 | 19.2 | 14.8 | 8.7 | 53.1 | 17.4 | 18.9 | 26.6
C=C1C(=O)O[C@H]2C[C@](C)(/C=C/C(=O)CC)C(=O)C[C@@H]12 | 4.72 | 5.8 | 1.02 | 6.16 | 25.4 | 10.5 | 9.03 | 9.94
N=C(N)NN [PIMAGEDINE] | 11.9 | – | – | – | – | – | – | –

The remaining molecules from weak to strong by IC50 [7], led by results:

IC50 [7] [µM] | SMILES | IC50 [1] [µM] | IC50 [2] [µM] | IC50 [3] [µM] | IC50 [4] [µM] | IC50 [5] [µM] | IC50 [6] [µM] | IC50 [8] [µM]
4.63 | C=C(C)CC[C@H](OC(C)=O)[C@@]1(C)C[C@@H]2OC(=O)C(=C)[C@@H]2CC1=O | 8.53 | 7.31 | 4.88 | 24.8 | 11 | 12 | 14.4
4.26 | C=C1C(=O)O[C@H]2C[C@]3(C)C(=O)C=C(CC)[C@@H](C3=O)[C@@H]12 | 9.94 | 3.8 | 5.55 | 27.2 | 9.65 | 11.6 | 12.2
3.44 | C=C1C(=O)O[C@H]2C[C@]3(C)C(=O)C=C(CC)OC3=C[C@@H]12 | 9.37 | 5.06 | 3.55 | 19.6 | 9.58 | 7.86 | 10.3
